Reference: PMC8151276, “An Integrated Approach toward NanoBRET Tracers for Analysis of GPCR Ligand Engagement” (Molecules, 2021)

Tests used:
Type in all cases: binding
CXCR4 = target: T1, CXCR4 (Homo sapiens, UniProt P61073); assay: NanoBRET screen HiBiT-CXCR4 in HEK293
T1 construct: purchased Promega (in-house HiBiT-GPCR construct library, NanoBRET)
Procedure: (§1) Each tracer candidate was screened across the entire library of HiBiT-GPCR constructs using NanoBRET as the detection modality. As depicted in Figure 4A, the specificity of interactions was evaluated through decrease in BRET due to competitive displacement of a bound tracer by excess parental compound. Each tracer was analyzed for binding to each HiBiT-GPCR fusion in the absence and in the presence of competing parental compound. Briefly, HEK293 cells were transfected with HiBiT-GPCR constructs diluted into promoterless DNA to reduce expression and maximize translocation to the cell surface. Each tracer candidate was then screened at concentrations of 1 μM and 0.1 μM across cells expressing these fusions. Cells were treated for 1.5 h with tracer either alone or in the presence of 20 μM competing parental compound (i.e., control). BRET was measured upon addition of purified LgBiT and subsequent complementation with HiBiT genetically fused to a GPCR. The specificity of interactions was assessed through a decrease in BRET signal due to competitive displacement of the bound tracer. To further gauge the robustness of these interactions, the fold response over the control (i.e., BRETtracer/BRETcontrol) was calculated. We chose a 1.5-fold response, which translates to ≥7-fold signal over noise as the minimal threshold required to score an interaction as positive. […]. Below we highlight the screening results obtained for our exemplary fluorescent tracers based on Clozapine, Amitriptyline and AZD1283.
(§2) HiBiT-GPCR DNA constructs were diluted in 10 mM Tris pH 8 to a final concentration of 0.01 μg/μL, arrayed in 96-well plates and stored at −20 °C. For transfection, HEK293 cells were suspended in Opti-MEM (without phenol red) supplemented with 2% fetal bovine serum (Seradigm) and 100 units/mL penicillin–streptomycin (Gibco) at a final concentration of 220,000 cells/mL and dispensed into white 96-well plates at 90 μL/well. Subsequent transfections and screens were carried using an Agilent Bravo Automated Liquid Handling Platform. First, the 96-well HiBiT DNA arrays were diluted 25-fold in Opti-MEM (without serum or phenol red) to a final concentration of 0.0004 μg/μL and 20 μL of the diluted DNAs were transferred into new 96-well plates. Next, promoterless carrier DNA (1 μg/μL) was diluted 25-fold (0.04 μg/μL) and then dispensed into the diluted arrays at 20 μL/well. Following brief mixing, Viafect transfection reagent (Promega) diluted 16-fold into Opti-MEM was dispensed into the plates at 40 μL/well. After mixing by pipetting, plates were incubated for 10 min on the pipetting station deck. The DNA-transfection reagent complexes were then added to plates containing cells. To facilitate the screen, 10 μL of DNA-transfection reagent complexes were added in duplicates to the top 4 and bottom 4 rows, resulting in two identical 48-well arrays per plate. Plates with transfected cells were incubated for 18–20 h at 37 °C/5% CO2. A screen of each tracer across the entire library using two different concentrations requires duplicate plates of transfected cells. Depending on the number of tracers being screened, transfections can be scaled up using the same ratios. The next day, for each tracer, four 20× screening solutions in tracer dilution buffer (Promega) were prepared: two duplicates at final concentration of 20 μM and two duplicates at a final concentration of 2 μM. A competing unmodified compound was added to one of each duplicate at a final concentration of 400 μM. The four resulting solutions were diluted 4-fold in Opti-MEM without serum or phenol red to generate 5× solutions (5 µM and 0.5 µM tracer +/− 100 μM competing compound). To screen the library, a BioTek MultiFlo FX liquid dispenser was used to dispense 22.5 µL of tracer solution to the top 4 rows and 22.5 µL tracer + competing compound solution to the 4 bottom rows. Plates were briefly mixed on an orbital shaker and incubated for 1.5 h at room temperature. […]

GABBR1 = target: T2, GABBR1 (Homo sapiens, UniProt Q9UBS5); assay: NanoBRET screen HiBiT-GABBR1 in HEK293
T2 construct: purchased Promega (in-house HiBiT-GPCR construct library, NanoBRET)
Procedure: as §1, §2

HRH2 = target: T3, HRH2 (Homo sapiens, UniProt P25021); assay: NanoBRET screen HiBiT-HRH2 in HEK293
T3 construct: purchased Promega (in-house HiBiT-GPCR construct library, NanoBRET)
Procedure: as §1, §2

HCRTR2 = target: T4, HCRTR2 (Homo sapiens, UniProt O43614); assay: NanoBRET screen HiBiT-HCRTR2 in HEK293
T4 construct: purchased Promega (in-house HiBiT-GPCR construct library, NanoBRET)
T4 sequence (O43614 1-444): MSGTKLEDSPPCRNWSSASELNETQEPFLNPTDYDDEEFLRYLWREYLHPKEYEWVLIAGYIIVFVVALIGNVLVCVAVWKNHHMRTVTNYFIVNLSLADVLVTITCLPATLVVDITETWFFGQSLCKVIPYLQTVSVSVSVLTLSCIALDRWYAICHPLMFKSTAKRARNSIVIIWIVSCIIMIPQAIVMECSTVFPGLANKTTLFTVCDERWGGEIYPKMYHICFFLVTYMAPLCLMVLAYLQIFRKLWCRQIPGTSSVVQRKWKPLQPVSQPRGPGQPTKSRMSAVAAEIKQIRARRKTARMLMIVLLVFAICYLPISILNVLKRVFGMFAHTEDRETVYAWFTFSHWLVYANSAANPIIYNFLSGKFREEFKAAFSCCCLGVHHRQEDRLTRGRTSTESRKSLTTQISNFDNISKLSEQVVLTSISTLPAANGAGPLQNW
Procedure: as §1, §2

F2R = target: T5, F2R (Homo sapiens, UniProt P25116); assay: NanoBRET screen HiBiT-F2R in HEK293
T5 construct: purchased Promega (in-house HiBiT-GPCR construct library, NanoBRET)
T5 sequence (P25116 22-425): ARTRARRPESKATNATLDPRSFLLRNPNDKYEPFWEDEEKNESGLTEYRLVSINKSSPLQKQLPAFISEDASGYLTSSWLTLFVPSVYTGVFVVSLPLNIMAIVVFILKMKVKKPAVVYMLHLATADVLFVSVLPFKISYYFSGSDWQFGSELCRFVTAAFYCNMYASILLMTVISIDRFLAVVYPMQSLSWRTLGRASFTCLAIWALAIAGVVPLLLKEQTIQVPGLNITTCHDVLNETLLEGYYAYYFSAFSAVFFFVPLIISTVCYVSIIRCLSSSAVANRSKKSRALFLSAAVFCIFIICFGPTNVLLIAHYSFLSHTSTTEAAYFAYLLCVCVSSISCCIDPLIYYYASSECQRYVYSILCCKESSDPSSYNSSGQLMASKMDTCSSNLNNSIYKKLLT
Procedure: as §1, §2

NPBWR2 = target: T6, NPBWR2 (Homo sapiens, UniProt P48146); assay: NanoBRET screen HiBiT-NPBWR2 in HEK293
T6 construct: purchased Promega (in-house HiBiT-GPCR construct library, NanoBRET)
Procedure: as §1, §2

PTGER2 = target: T7, PTGER2 (Homo sapiens, UniProt P43116); assay: NanoBRET screen HiBiT-PTGER2 in HEK293
T7 construct: purchased Promega (in-house HiBiT-GPCR construct library, NanoBRET)
Procedure: as §1, §2

T7 sequence (P43116 whole entry): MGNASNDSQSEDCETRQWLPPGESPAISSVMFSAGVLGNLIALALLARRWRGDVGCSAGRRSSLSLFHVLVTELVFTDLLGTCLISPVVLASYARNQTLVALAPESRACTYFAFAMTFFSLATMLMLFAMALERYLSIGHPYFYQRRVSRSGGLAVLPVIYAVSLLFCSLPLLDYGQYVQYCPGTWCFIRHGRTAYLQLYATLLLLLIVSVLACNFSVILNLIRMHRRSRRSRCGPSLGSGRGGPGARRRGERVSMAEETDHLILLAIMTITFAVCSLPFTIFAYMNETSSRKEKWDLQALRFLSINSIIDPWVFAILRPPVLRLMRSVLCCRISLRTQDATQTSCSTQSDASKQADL
T1 sequence (P61073 whole entry): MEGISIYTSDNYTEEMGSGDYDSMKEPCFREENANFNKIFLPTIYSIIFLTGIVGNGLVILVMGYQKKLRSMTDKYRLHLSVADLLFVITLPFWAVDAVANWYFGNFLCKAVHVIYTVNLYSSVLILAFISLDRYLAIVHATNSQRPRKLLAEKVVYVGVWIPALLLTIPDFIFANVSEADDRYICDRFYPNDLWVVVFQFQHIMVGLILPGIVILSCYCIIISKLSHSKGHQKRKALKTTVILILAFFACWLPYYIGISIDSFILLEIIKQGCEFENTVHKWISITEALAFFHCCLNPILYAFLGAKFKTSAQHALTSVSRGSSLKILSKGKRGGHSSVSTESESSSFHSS
T6 sequence (P48146 whole entry): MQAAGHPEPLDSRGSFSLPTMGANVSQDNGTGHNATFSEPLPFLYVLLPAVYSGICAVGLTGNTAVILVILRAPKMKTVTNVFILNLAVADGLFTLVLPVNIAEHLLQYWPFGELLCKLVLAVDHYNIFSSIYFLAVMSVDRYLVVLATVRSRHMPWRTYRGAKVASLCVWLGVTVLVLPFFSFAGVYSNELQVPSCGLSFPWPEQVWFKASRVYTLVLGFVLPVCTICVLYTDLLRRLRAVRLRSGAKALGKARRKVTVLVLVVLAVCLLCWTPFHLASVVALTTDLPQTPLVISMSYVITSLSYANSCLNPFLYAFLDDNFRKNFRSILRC
T2 sequence (Q9UBS5 15-961 limits assumed): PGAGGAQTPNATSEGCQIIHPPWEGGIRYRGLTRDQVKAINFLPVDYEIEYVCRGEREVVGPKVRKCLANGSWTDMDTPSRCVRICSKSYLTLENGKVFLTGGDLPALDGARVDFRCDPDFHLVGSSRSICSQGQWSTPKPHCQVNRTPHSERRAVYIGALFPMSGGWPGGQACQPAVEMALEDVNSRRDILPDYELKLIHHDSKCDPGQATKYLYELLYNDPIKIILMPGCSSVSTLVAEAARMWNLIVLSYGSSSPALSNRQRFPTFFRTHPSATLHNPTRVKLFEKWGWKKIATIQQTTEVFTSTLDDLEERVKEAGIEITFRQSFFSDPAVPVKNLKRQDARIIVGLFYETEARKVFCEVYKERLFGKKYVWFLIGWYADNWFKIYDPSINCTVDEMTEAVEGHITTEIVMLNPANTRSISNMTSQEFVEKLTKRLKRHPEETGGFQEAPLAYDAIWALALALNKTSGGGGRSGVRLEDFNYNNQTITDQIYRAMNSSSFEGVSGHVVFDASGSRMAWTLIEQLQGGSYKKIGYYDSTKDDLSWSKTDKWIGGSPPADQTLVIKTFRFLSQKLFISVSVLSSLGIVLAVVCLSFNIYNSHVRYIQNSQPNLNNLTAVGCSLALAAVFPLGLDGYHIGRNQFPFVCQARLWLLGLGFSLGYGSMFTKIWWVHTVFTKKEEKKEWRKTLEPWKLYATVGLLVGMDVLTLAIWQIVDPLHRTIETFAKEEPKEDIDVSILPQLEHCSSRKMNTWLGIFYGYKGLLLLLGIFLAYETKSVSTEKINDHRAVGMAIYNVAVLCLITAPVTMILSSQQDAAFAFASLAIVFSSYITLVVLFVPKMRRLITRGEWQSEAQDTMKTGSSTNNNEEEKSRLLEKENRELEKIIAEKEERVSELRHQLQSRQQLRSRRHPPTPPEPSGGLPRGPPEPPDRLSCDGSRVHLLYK
T3 sequence (P25021 whole entry): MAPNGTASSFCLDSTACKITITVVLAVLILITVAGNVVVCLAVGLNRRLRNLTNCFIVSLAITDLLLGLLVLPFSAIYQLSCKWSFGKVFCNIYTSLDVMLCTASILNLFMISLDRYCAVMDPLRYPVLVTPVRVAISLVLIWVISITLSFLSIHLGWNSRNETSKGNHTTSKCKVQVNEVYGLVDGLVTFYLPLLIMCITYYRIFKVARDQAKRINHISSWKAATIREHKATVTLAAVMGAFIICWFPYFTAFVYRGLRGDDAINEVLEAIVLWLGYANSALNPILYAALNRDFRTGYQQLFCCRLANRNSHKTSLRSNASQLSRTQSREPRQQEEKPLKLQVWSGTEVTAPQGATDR

Structure (SMILES)	NanoBRET Fold Response (CXCR4; CXCR4, tracer 0.1μM)	NanoBRET Fold Response (CXCR4; CXCR4, tracer 1μM)	NanoBRET Fold Response (GABBR1; GABBR1, tracer 0.1μM)	NanoBRET Fold Response (GABBR1; GABBR1, tracer 1μM)	NanoBRET Fold Response (HRH2; HRH2, tracer 0.1μM)	NanoBRET Fold Response (HRH2; HRH2, tracer 1μM)	NanoBRET Fold Response (HCRTR2; HCRTR2, tracer 0.1μM)	NanoBRET Fold Response (HCRTR2; HCRTR2, tracer 1μM)	NanoBRET Fold Response (F2R; F2R, tracer 0.1μM)	NanoBRET Fold Response (F2R; F2R, tracer 1μM)	NanoBRET Fold Response (NPBWR2; NPBWR2, tracer 0.1μM)	NanoBRET Fold Response (NPBWR2; NPBWR2, tracer 1μM)	NanoBRET Fold Response (PTGER2; PTGER2, tracer 0.1μM)	NanoBRET Fold Response (PTGER2; PTGER2, tracer 1μM)	further results
CN1CCN(C2=Nc3cc(Cl)ccc3N(CC(=O)NCCOCCOCCOCCOCCNC(=O)CCc3ccc4n3[B-](F)(F)[N+]3=C(c5ccc[nH]5)C=CC3=C4)c3ccccc32)CC1 [Clozapine-c-2-NB590]	–	–	–	–	–	–	–	–	–	–	–	–	–	–	NanoBRET Fold Response (CXCR4; CXCR4, 0.1μM tracer): 1.04; NanoBRET Fold Response (CXCR4; CXCR4, 1μM tracer): 0.97; NanoBRET Fold Response (GABBR1; GABBR1, 0.1μM tracer): 0.97; NanoBRET Fold Response (GABBR1; GABBR1, 1μM tracer): 0.89; NanoBRET Fold Response (HRH2; HRH2, 0.1μM tracer): 0.92; NanoBRET Fold Response (HRH2; HRH2, 1μM tracer): 0.95; NanoBRET Fold Response (HCRTR2; HCRTR2, 0.1μM tracer): 0.97; NanoBRET Fold Response (HCRTR2; HCRTR2, 1μM tracer): 1.04; NanoBRET Fold Response (F2R; F2R, 0.1μM tracer): 0.99; NanoBRET Fold Response (F2R; F2R, 1μM tracer): 0.99; NanoBRET Fold Response (NPBWR2; NPBWR2, 0.1μM tracer): 0.97; NanoBRET Fold Response (NPBWR2; NPBWR2, 1μM tracer): 0.98; NanoBRET Fold Response (PTGER2; PTGER2, 0.1μM tracer): 0.98; NanoBRET Fold Response (PTGER2; PTGER2, 1μM tracer): 1.09
Cc1nc2n(c(=O)c1CCN1CCC(c3noc4cc(F)ccc34)CC1)CCCC2OC(=O)NCCOCCOCCOCCOCCNC(=O)CCc1ccc2n1[B-](F)(F)[N+]1=C(c3ccc[nH]3)C=CC1=C2 (stereo not drawn) [Risperidone-2-NB590]	1.05	1.12	1.09	0.87	1.05	1.13	0.98	0.96	0.97	0.78	1.05	1.00	1.01	1.05	–
COc1ccc2[nH]c(-c3ccc(CNC(=O)CCOCCOCCOCCOCCNC(=O)CCc4ccc5n4[B-](F)(F)[N+]4=C(c6ccc[nH]6)C=CC4=C5)cc3)c(CCNC(C)=O)c2n1 [AzomelatoninICO9-2-NB590]	–	–	–	–	–	–	–	–	–	–	–	–	–	–	NanoBRET Fold Response (CXCR4; 0.1μM tracer): 1.00; NanoBRET Fold Response (CXCR4; 1μM tracer): 0.81; NanoBRET Fold Response (GABBR1; 0.1μM tracer): 0.66; NanoBRET Fold Response (GABBR1; 1μM tracer): 0.57; NanoBRET Fold Response (HRH2; 0.1μM tracer): 1.11; NanoBRET Fold Response (HRH2; 1μM tracer): 1.07; NanoBRET Fold Response (HCRTR2; 0.1μM tracer): 1.02; NanoBRET Fold Response (HCRTR2; 1μM tracer): 1.08; NanoBRET Fold Response (F2R; 0.1μM tracer): 1.38; NanoBRET Fold Response (F2R; 1μM tracer): 0.84; NanoBRET Fold Response (NPBWR2; 0.1μM tracer): 1.08; NanoBRET Fold Response (NPBWR2; 1μM tracer): 0.90; NanoBRET Fold Response (PTGER2; 0.1μM tracer): 1.01; NanoBRET Fold Response (PTGER2; 1μM tracer): 0.97
COc1ccccc1N1CCN(CCCCN2C(=O)c3ccc(CNC(=O)CCOCCOCCOCCOCCNC(=O)CCc4ccc5n4[B-](F)(F)[N+]4=C(c6ccc[nH]6)C=CC4=C5)cc3C2=O)CC1 [NAN-190-2-NB590]	1.00	1.03	0.88	0.93	0.94	–	1.02	1.00	1.07	0.93	1.00	–	1.02	0.98	–
O=C(CCc1ccc2n1[B-](F)(F)[N+]1=C(c3ccc[nH]3)C=CC1=C2)NCCOCCOCCNC(=O)OCCOCCN1CCN(C2=Nc3ccccc3Sc3ccccc32)CC1 [Quetiapine-a-2-NB590]	0.98	0.97	1.22	0.93	0.81	1.05	1.01	0.84	1.09	1.41	0.97	1.09	0.96	1.05	–
O=C(CCOCCOCCOCCOCCNC(=O)CCc1ccc2n1[B-](F)(F)[N+]1=C(c3ccc[nH]3)C=CC1=C2)NCCCN1CCN(C2=Nc3cc(Cl)ccc3Nc3ccccc32)CC1 [Clozapine-a-2-NB590]	–	–	–	–	–	–	–	–	–	–	–	–	–	–	NanoBRET Fold Response (CXCR4; CXCR4, 0.1μM tracer): 1.04; NanoBRET Fold Response (CXCR4; CXCR4, 1μM tracer): 0.85; NanoBRET Fold Response (GABBR1; GABBR1, 0.1μM tracer): 0.96; NanoBRET Fold Response (GABBR1; GABBR1, 1μM tracer): 1.33; NanoBRET Fold Response (HRH2; HRH2, 0.1μM tracer): 0.95; NanoBRET Fold Response (HRH2; HRH2, 1μM tracer): 0.89; NanoBRET Fold Response (HCRTR2; HCRTR2, 0.1μM tracer): 1.05; NanoBRET Fold Response (HCRTR2; HCRTR2, 1μM tracer): 1.16; NanoBRET Fold Response (F2R; F2R, 0.1μM tracer): 1.12; NanoBRET Fold Response (F2R; F2R, 1μM tracer): 1.05; NanoBRET Fold Response (NPBWR2; NPBWR2, 0.1μM tracer): 1.04; NanoBRET Fold Response (NPBWR2; NPBWR2, 1μM tracer): 0.89; NanoBRET Fold Response (PTGER2; PTGER2, 0.1μM tracer): 1.01; NanoBRET Fold Response (PTGER2; PTGER2, 1μM tracer): 1.05
N#CN=C(NCCCOc1cccc(CN2CCCCC2)c1)NCCNC(=O)CCOCCOCCOCCOCCNC(=O)CCc1ccc2n1[B-](F)(F)[N+]1=C(c3ccc[nH]3)C=CC1=C2 [Aminopotentidine-2-NB590]	1.08	0.99	1.06	1.00	5.51	3.65	1.01	0.97	1.06	1.00	1.04	0.92	0.99	1.03	–
